Biological target: T1, human farnesyl transferase (Homo sapiens, UniProt P49354+P49356)
T1 construct: human farnesyl transferase purified from THP1 cell cultures; endogenous in cells; host or cells: THP1 cell cultures (enzyme purified from the cells)
Assay: inhibition of farnesyl transferase ((3H) farnesyl transfer from (3H) FPP to p21 H-ras)
Type: biochemical
Conditions: not given
Method: Farnesyl transferase activity is determined by the amount of (^3 H) farnesyl transferred from (^3 H) farnesylpyrophosphate [(^3 H) FPP] to the p21 H-ras protein. The standard reaction mixture is composed, for a final volume of […], of 50 mM Tris-HCl, 5 mM MgCl2, 5 mM dithiotreitol, 0.2% octyl b-D-glucopyranoside, 200 picomol p21 H-ras, 4.5 picomol (^3 H) FPP (activity 61000 dpm/picomol).
Reaction is initiated by adding approximately 5 ng of human farnesyl transferase purified from THP1 cell cultures. After incubation for 20 minutes at 37° C. in a microtitration plate containing 96 1-cm^3 wells per plate (Titer Plate®, Beckman), the reaction is stopped by adding 0.4 cm^3 of 0.1% SDS in methanol at 0° C. The mixture is then treated with 0.4 cm^3 of 30% trichloroacetic® acid (TCA) in methanol. The plates are left in ice for 1 hour. The precipitated contents are then retained on Filtermat®, Pharmacia), glass® fibre membranes with the filtration unit (Combi Cell Harvester®, Skatron), and rinsed with 6% trichloroacetic acid in distilled water. The membranes are dried in a microwave oven, then impregnated with scintillation medium by melting of Meltilex® (Pharmacia) under hot air, and lastly counted in cpm in a b-Plate counter® (LKB). Each test is repeated 3 times.
The unit of activity is defined as 1 picomole of (^3 H) FPP transferred to p21 H-ras in 20 minutes.
The percentage inhibition values are obtained by comparison of the tests with and without inhibitor after deduction of blanks, the IC50 values being measured on the basis of the inhibitions obtained with 9 different concentrations using Enzfitter® or Grafit® software.

Compared with `COc1ccccc1NC(=O)N1C[C@@H]2[C@]3(c4ccccc4)CC[C@@H](c4ccccc43)[C@]2(C(=O)O)C1` (relative stereo) [Example 66, (3aRS,4SR,9SR,9aRS)-4,9-Ethano-2-(2-methoxyphenyl)aminocarbonyl-9-phenyl-2,3,3a,4,9,9a-hexahydro-1H-benzo[f]isoindole-3a-carboxylic acid], `COc1ccccc1CC(=O)N1C[C@@H]2[C@]3(c4ccccc4)CC[C@@H](c4ccc(I)cc43)[C@]2(C(=O)O)C1` (relative stereo) [Example 43, (3aRS,4SR,9SR,9aRS)-4,9-ethano-7-iodo-2-(2-methoxyphenyl)acetyl-9-phenyl-2,3,3a,4,9,9a-hexahydro-1H-benzo[f]isoindole-3a-carboxylic acid] is 13-fold lower in IC50: 9.2 µM for the first, 0.7 µM for the second. The second is the more potent here.

Same assay, conditions: human farnesyl transferase purified from THP1 cell cultures; p21 H-ras substrate; 20 minutes at 37° C.; 9 concentrations; read-out: in vitro inhibitory activity IC50

Going from `COc1ccccc1CC(=O)N1C[C@H]2[C@@]3(c4ccccc4)CC[C@H](c4ccccc43)[C@@]2(C(=O)NCCN(C)C)C1` (relative stereo) [Example 4, (3aRS, 4SR, 9SR, 9aRS)-N-(2-dimethylaminoethyl)-4,9-ethano-2-(2-methoxyphenyl)acetyl-9-phenyl-2,3,3a,4,9,9a-hexahydro-1H-benzo[f]isoindole-3a-carboxamide] to `CNC(=O)[C@@]12CN(C(=O)Cc3ccccc3OC)C[C@@H]1[C@]1(c3ccccc3)CC[C@H]2c2ccccc21` (relative stereo) [Example 54, (3aRS,4SR,9SR,9aRS)-N-methyl-4,9-ethano-2-(2-methoxyphenyl)acetyl-9-phenyl-2,3,3a,4,9,9a-hexahydro-1H-benzo[f]isoindole-3a-carboxamide], the IC50 falls from 9.4 µM to 4.7 µM (2-fold).

`C=Cc1ccc2c(c1)[C@]1(c3ccccc3)CC[C@H]2[C@@]2(C(=O)O)CN(C(=O)Cc3ccccc3OC)C[C@@H]12` (relative stereo) [Example 73, (3aRS,4SR,9SR,9aRS)-4,9-ethano-2-(2-methoxyphenyl)acetyl-9-phenyl-7-vinyl-2,3,3a,4,9,9a-hexahydro-1H-benzo[f]isoindole-3a-carboxylic acid] and `COc1ccccc1CC(=O)N1C[C@H]2[C@@]3(c4ccccc4)CC[C@H](c4ccccc43)[C@@]2(C(N)=O)C1` (relative stereo) [Example 3, (3aRS, 4SR, 9SR, 9aRS)-4,9-ethano-2-(2-methoxyphenyl)acetyl-9-phenyl-2,3,3a,4,9,9a-hexahydro-1H-benzo[f]isoindole-3a-carboxamide] are within 1.5-fold of each other in IC50: 3.15 µM for the first, 4.7 µM for the second.

First: O=C(Cc1cccc2c1OCCC2)N1C[C@H]2[C@@]3(c4ccccc4)CC[C@H](c4ccccc43)[C@@]2(C(=O)O)C1 (relative stereo) [Example 76, (3aRS,4SR,9SR,9aRS)-2-(8-chromanyl)acetyl-4,9-ethano-9-phenyl-2,3,3a,4,9,9a-hexahydro-1H-benzo[f]isoindole-3a-carboxylic acid]
Second: COc1ccccc1CC(=O)N1C[C@@H]2[C@]3(c4ccccc4)CC[C@@H](c4ccccc43)[C@]2(C(=O)NCCC(=O)O)C1 (relative stereo) [Example 50, N-[(3aRS,4SR,9SR,9aRS)-4,9-ethano-2-(2-methoxyphenyl)acetyl-9-phenyl-2,3,3a,4,9,9a-hexahydro-1H-benzo[f]isoindol-3a-yl]carbonyl-3-aminopropanoic acid]
The IC50 of the first is 2.8-fold higher: 3.65 µM for the first, 1.3 µM for the second.

Compared with `COc1ccccc1CC(=O)N1C[C@H]2[C@@]3(c4ccccc4)CC[C@H](c4ccccc43)[C@@]2(C(=O)NC(CCC(=O)O)C(=O)O)C1` (stereo partly shown) [Example 7], `C=C(C(=O)N1C[C@H]2[C@@]3(c4ccccc4)CC[C@H](c4ccccc43)[C@@]2(C(=O)NC2CCSc3ccccc32)C1)c1ccccc1OC` (stereo partly drawn) [Example 88, (3aS,4R,9R,9aS)-N-[(R,S)-4-benzo[b]thiopyranyl]-4,9-ethano-2-[(2-methoxyphenyl)prop-2-en-1-oyl]-9-phenyl-2,3,3a,4,9,9a-hexahydro-1H-benzo[f]isoindole-3a-carboxamide] is 4.3-fold higher in IC50: 0.58 µM for the first, 2.5 µM for the second. The first is the more potent here.
